Data from ChEMBL document CHEMBL1201862, “PubChem BioAssay data set” (2004).
Blank lines part the entries; values can stand above or below the compound they belong to. Active and inactive are the calls of the source.

Tests used:
[1] = biological target: T1, E3 ubiquitin-protein ligase XIAP (Homo sapiens, UniProt P98170); test: Counter Screen using XIAP-Bir3 for Chemical Antagonists of Bir1/2 domains of IAP-family anti-apoptotic proteins. [Related pubchem assays (depositor defined):AID1018, AID1449, AID1514, AID1638, AID1749, AID1750, AID488957, AID488963]
T1 sequence (P98170 whole entry): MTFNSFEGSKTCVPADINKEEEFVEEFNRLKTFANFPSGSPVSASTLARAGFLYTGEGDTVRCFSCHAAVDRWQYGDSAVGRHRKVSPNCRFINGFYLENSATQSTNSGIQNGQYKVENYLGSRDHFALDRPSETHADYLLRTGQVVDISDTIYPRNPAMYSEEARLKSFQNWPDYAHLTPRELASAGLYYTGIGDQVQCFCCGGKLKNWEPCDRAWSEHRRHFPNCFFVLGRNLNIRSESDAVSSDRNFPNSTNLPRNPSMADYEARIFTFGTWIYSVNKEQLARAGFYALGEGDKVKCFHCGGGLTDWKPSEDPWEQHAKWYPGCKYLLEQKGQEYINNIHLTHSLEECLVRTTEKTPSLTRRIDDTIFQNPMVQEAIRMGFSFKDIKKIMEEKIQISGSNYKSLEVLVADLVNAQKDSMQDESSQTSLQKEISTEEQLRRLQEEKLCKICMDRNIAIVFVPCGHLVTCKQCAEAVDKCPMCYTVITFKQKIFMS

[2] = biological target: T1, E3 ubiquitin-protein ligase XIAP; test: small molecules displacing peptide from XIAP – biochemical, IAP family, fluorescence polarization (AID 1018); assay type: functional
[3] = biological target: T2, Hexokinase (Trypanosoma brucei, UniProt Q38C41); test: Confirmation assay for inhibitors of Trypanosoma brucei hexokinase 1-Analogue-first series. [Related pubchem assays (depositor defined):AID1430, AID1632, AID2516, AID2560, AID2579, AID2600, AID449725, AID492951]; assay type: functional
T2 sequence (Q38C41 whole entry): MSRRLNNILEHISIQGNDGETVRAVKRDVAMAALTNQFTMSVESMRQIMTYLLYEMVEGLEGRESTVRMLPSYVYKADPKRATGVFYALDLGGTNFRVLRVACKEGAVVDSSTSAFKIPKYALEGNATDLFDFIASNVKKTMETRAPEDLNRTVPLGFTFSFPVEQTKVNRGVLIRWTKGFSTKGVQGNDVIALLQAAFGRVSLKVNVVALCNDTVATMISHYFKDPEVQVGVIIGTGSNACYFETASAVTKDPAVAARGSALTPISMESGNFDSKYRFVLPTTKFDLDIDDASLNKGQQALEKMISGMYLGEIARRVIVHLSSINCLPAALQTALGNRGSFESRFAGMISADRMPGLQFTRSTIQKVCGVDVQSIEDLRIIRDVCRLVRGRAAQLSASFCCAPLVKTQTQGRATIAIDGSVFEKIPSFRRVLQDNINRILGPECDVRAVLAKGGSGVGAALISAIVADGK

[4] = biological target: Troponin, cardiac muscle (Homo sapiens, UniProt P19429+P45379+P63316); test: Fluorescence-based biochemical high throughput dose response assay for activators of the calcium sensitivity of cardiac Regulated Thin Filaments (RTF). [Related pubchem assays (depositor defined):AID493008, AID493018, AID504382, AID504383]; assay type: protein-complex assay
[5] = biological target: G-protein coupled receptor 55 (Homo sapiens, UniProt Q9Y2T6); test: inhibition of LPI-stimulated GPR55 beta-arrestin translocation – imaging, U2OS, beta-arrestin-GFP, LPI agonist, primary screen (AID 2013); assay type: functional;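 also: antagonist potency measured as reduced agonist-driven arrestin aggregation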
G-protein coupled receptor 55, sequence (Q9Y2T6 whole entry): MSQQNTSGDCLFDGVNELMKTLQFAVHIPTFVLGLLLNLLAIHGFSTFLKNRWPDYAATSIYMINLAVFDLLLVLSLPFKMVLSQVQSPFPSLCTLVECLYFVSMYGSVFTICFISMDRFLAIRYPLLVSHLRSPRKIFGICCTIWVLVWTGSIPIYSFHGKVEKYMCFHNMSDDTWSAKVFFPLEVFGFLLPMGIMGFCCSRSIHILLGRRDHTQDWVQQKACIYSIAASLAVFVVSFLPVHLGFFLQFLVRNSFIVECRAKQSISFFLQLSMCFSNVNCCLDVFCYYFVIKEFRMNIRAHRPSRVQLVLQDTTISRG

[6] = biological target: DNA dC->dU-editing enzyme APOBEC-3A (Homo sapiens, UniProt P31941); test: A3A deaminase inhibition for selectivity – biochemical, dose response (AID 504722); assay type: functional
DNA dC->dU-editing enzyme APOBEC-3A, sequence (P31941 whole entry): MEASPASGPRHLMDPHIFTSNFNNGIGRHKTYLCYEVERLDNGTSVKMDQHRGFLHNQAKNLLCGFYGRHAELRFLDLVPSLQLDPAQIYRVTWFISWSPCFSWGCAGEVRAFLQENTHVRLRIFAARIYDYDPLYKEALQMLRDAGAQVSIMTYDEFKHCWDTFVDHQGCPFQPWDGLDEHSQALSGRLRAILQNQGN

[7] = biological target: T3, Rac GTPase-activating protein 1 (Homo sapiens, UniProt Q9H0H5); test: blockers of MgcRacGAP-driven Rac1 GTP hydrolysis – biochemical, ADP Hunter fluorescence, primary and confirmatory, confirmation (AID 624330); assay type: functional
T3 sequence (Q9H0H5 whole entry): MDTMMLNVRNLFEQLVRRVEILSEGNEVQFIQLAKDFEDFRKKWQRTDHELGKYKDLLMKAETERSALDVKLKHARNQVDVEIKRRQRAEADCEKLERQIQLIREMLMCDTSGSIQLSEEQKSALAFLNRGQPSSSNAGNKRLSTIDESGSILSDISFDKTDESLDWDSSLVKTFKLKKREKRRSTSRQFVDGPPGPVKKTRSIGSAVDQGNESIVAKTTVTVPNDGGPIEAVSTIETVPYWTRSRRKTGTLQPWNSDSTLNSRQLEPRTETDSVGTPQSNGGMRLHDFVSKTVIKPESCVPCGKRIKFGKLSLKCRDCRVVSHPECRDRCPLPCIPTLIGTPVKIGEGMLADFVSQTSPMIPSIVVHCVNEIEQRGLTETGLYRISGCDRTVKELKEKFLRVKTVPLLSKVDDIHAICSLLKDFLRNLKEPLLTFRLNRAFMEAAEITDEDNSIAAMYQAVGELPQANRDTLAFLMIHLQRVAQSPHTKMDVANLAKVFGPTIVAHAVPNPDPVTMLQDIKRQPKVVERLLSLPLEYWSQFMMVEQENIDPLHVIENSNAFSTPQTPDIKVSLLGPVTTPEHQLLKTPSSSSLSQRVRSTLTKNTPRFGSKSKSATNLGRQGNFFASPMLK

[8] = biological target: DNA dC->dU-editing enzyme APOBEC-3G (Homo sapiens, UniProt Q9HC16); test: Dose Response confirmation of small molecule APOBEC3G DNA Deaminase Inhibitors via a fluorescence-based single-stranded DNA deaminase assay. [Related pubchem assays (depositor defined):AID493012, AID493028]; assay type: functional
DNA dC->dU-editing enzyme APOBEC-3G, sequence (Q9HC16 whole entry): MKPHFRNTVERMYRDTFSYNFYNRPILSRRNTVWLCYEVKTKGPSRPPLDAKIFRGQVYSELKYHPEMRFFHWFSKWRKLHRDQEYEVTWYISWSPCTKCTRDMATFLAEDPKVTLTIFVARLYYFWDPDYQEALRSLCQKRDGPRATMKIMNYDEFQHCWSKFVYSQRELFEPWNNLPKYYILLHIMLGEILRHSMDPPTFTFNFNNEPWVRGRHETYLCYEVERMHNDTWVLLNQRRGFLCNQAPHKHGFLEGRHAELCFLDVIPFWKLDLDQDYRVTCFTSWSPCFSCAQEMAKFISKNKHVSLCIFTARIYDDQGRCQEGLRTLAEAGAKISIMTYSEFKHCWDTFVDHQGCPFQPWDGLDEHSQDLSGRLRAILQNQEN

- IC50 [1]: > 100 µM (inactive)
- IC50 [2]: > 100 µM (not active)
SMILES: O=C(O)CCN(Cc1ccccc1)S(=O)(=O)c1ccccc1Cl

SMILES: O=C(Nc1cc(Cl)ccc1C(=O)O)c1ccc(-c2ccccc2)cc1
- IC50 [3]: 22.3 µM (active)

- EC50 [4]: > 71.5 µM (inactive)
SMILES: O=C1c2ccsc2SCCN1Cc1ccc(F)cc1

- IC50 [1]: > 100 µM (inactive)
- IC50 [2]: > 100 µM (not active)
SMILES: Cc1cccc(OCc2nc(C#N)c(NCCN(C)C)o2)c1

SMILES: Cc1cc(N2CCCC2)ccc1C=C(C#N)C#N
- EC50 [4]: 4.16 µM (active)

- IC50 [5]: 1.7 µM (active)
SMILES: NNC(=O)COc1ccc(-c2[nH]nc(C(F)(F)F)c2-c2ccc(Br)cc2)c(O)c1

SMILES: Sc1nnc(-c2ccncc2)n1/N=C/c1ccccc1
- IC50 [6]: > 100 µM (inactive)
- IC50 [7]: 51.9 µM (active)
- IC50 [8]: 2.52 µM (active)

SMILES: O=C(Cn1sc2ccccc2c1=O)Nc1ccc(I)cc1
- IC50 [3]: 14.8 µM (active)

- EC50 [4]: > 71.5 µM (inactive)
SMILES: Cc1cc(C)c2nc(NC(=O)C3CCCO3)sc2c1 (stereo not drawn)
